In publication PMC10488051, “Screening, Synthesis and Biochemical Characterization of SARS-CoV-2 Protease Inhibitors” (International Journal of Molecular Sciences, 2023):
Values joined by “and” are separate entries in the source; they are usually repeats but may differ in a detail not shown here. Identical values can stand only once. “Also recorded” adds a separate entry of the source. Like-named read-outs stand apart in the source and are kept apart here.

How the values were obtained:
[1] = molecular target: SARS-CoV-2 M^pro (Severe acute respiratory syndrome coronavirus 2, UniProt P0DTD1); assay: biochemical; assay type: biochemical
[2] = molecular target: SARS-CoV-2 PL^pro (Severe acute respiratory syndrome coronavirus 2, UniProt P0DTD1); assay: PL^pro enzymatic inhibition assay (FRET-based, Z-RLRGG-AMC substrate); assay type: biochemical; settings: for Kd: enzymatic inhibition assay, 25 °C, pH 7.5
[3] = molecular target: wt PL^pro (Severe acute respiratory syndrome coronavirus 2, UniProt P0DTD1)
[4] = molecular target: T1, M^pro (Severe acute respiratory syndrome coronavirus 2, UniProt P0DTD1); assay type: binding
[5] = molecular target: PL^pro (Severe acute respiratory syndrome coronavirus 2, UniProt P0DTD1); assay type: binding; settings: for Covalent binding to PL^pro by mass spectrometry: no reducing agents, 1 h incubation at room temperature
[6] = tested on: SARS-CoV-2; settings: patients with mild-to-moderate COVID-19; cited from earlier work
[7] = molecular target: T1, M^pro; settings: cited from earlier work
[8] = Table 1 thiazole series, uncertainty approx. 1.8-fold of Kd
[9] = Table 2 disulfide compounds, enzymatic inhibition assay, 25 °C, pH 7.5
[10] = Table 2 disulfide compounds, PL^pro dialyzed to avoid DTT

| Structure (SMILES) | Kd [1] [µM] | Kd [2, 8] [µM] | further results |
| --- | --- | --- | --- |
| O=C(O)CCNc1cccc2ccccc12 [Compound 1, 3-(naphtylamino]propanoic acid] | > 200 | 68 |  |
| NC(=S)N(CCC(=O)O)c1cccc2ccccc12 [Compound 2] | > 200 | 29 | Fold increase in PL^pro binding affinity compared to compound 1 ([2]; vs starting compound 1): 2 fold |
| O=C(O)CCN(c1nccs1)c1cccc2ccccc12 [Compound 3, 3-[naphthalene-1-yl(1,3-thiazol-2-yl)amino]propanoic acid] | 25 | 14 |  |
| Cc1csc(N(CCC(=O)O)c2cccc3ccccc23)n1 [Compound 4] | > 200 | 110 | Fold weakening of PL^pro interaction compared to compound 3 ([2]; vs parent compound 3): 8 fold |
| O=C(O)CCN(C1=NC(=O)CS1)c1cccc2ccccc12 [Compound 5] | > 200 | > 200 |  |
| O=C(O)CCN(c1nc(-c2ccc(Br)cc2)cs1)c1cccc2ccccc12 [Compound 6a] | > 200 | ≥ 50 |  |
| O=C(O)CCN(c1nc(-c2ccc(Cl)cc2)cs1)c1cccc2ccccc12 [Compound 6b] | > 200 | ≥ 50 |  |
| O=C(O)CCN(c1nc(-c2ccc(F)cc2)cs1)c1cccc2ccccc12 [Compound 6c] | > 200 | ≥ 50 |  |
| O=C(O)CCN(c1nc(-c2ccc([N+](=O)[O-])cc2)cs1)c1cccc2ccccc12 [Compound 6d] | 26 | 25 |  |
| N#Cc1ccc(-c2csc(N(CCC(=O)O)c3cccc4ccccc34)n2)cc1 [Compound 6e] | > 200 | 20 |  |
| O=C(O)CCN(c1nc(-c2ccc(Cl)c(Cl)c2)cs1)c1cccc2ccccc12 [Compound 7] | > 200 | ≥ 50 |  |
| O=C(O)CCN(c1nc(-c2ccc3ccccc3c2)cs1)c1cccc2ccccc12 [Compound 8] | > 200 | 35 |  |
| O=C(O)CCN(c1nc(CCl)cs1)c1cccc2ccccc12 [Compound 9] | > 200 | ≥ 50 |  |
| O=C(O)CCN(c1nc(CO)cs1)c1cccc2ccccc12 [Compound 10] | > 200 | 35 |  |
| CCOC(=O)Cc1csc(N(CCC(=O)O)c2cccc3ccccc23)n1 [Compound 11] | > 200 | > 200 |  |
| O=C(O)CCN(c1nc(CNc2ccccc2)cs1)c1cccc2ccccc12 [Compound 12] | > 200 | 29 |  |
| O=C(O)CCN(C1=NC(=O)C(=Cc2ccc(Br)cc2)S1)c1cccc2ccccc12 [Compound 13a] | 6.5 | 24 | Fold more potent for M^pro inhibition than PL^pro ([1]; ratio of Kd values): 3.7 fold |
| O=C(O)CCN(C1=NC(=O)C(=Cc2ccc(Cl)cc2)S1)c1cccc2ccccc12 [Compound 13b] | > 200 | ≥ 50 |  |
| O=C(O)CCN(C1=NC(=O)/C(=C/c2ccc(F)cc2)S1)c1cccc2ccccc12 [Compound 13c] | 8.6 | 8.6 |  |
| O=C(O)CCN(C1=NC(=O)C(=Cc2ccc(O)cc2O)S1)c1cccc2ccccc12 [Compound 14] | > 200 | 9.2 | melting point: 205 to 206 °C |
| O=C(O)CCN(C1=NC(=O)C(=Cc2ccccc2O)S1)c1cccc2ccccc12 [Compound 15] | > 200 | ≥ 50 | melting point: 203 to 204 °C |
| O=C(O)CCN(C1=NC(=O)C(=Cc2cccs2)S1)c1cccc2ccccc12 [Compound 16] | > 200 | ≥ 50 |  |
| COC(=O)C=C1SC(N(CCC(=O)O)c2cccc3ccccc23)=NC1=O [Compound 17] | > 200 | > 200 |  |
| Cc1nc(N(CCC(=O)O)c2cccc3ccccc23)sc1C(=O)O [Compound 18] | > 200 | ≥ 50 |  |
| CC(=O)c1sc(N(CCC(=O)O)c2cccc3ccccc23)nc1C [Compound 19] | > 200 | ≥ 50 |  |
| CCOC(=O)c1sc(N(CCC(=O)O)c2cccc3ccccc23)nc1C [Compound 20] | > 200 | 29 |  |
| Cc1nc(N(CCC(=O)O)c2cccc3ccccc23)sc1C(=O)/C=C/c1ccccc1 [Compound 21a] | > 200 | 110 |  |
| Cc1nc(N(CCC(=O)O)c2cccc3ccccc23)sc1C(=O)/C=C/c1ccc(Cl)cc1 [Compound 21b] | 17 | 29 | Fold higher PL^pro affinity than compound 25b [2]: 2 fold; Fold improvement of PL^pro interaction in styryl ketone series [2]: 4 |

| Structure (SMILES) | Kd [1] [µM] | Kd [2, 8] [µM] | further results |
| --- | --- | --- | --- |
| Cc1nc(N(CCC(=O)O)c2cccc3ccccc23)sc1C(=O)/C=C/c1ccc(F)cc1 [Compound 21c] | > 200 | 52 | Fold improvement of PL^pro interaction in styryl ketone series [2]: two times |
| Cc1nc(N(CCC(=O)O)c2cccc3ccccc23)sc1C(=O)/C=C/c1cccc2ccccc12 [Compound 22] | 10 | 5.2 | Fold stronger PL^pro affinity than compound 4 ([2]; vs compound 4): more than 20 fold |
| C/C(=N/Nc1ccccc1)c1sc(N(CCC(=O)O)c2cccc3ccccc23)nc1C [Compound 23] | > 200 | 75 |  |
| C/C(=N/N=C(/C)c1sc(N(CCC(=O)O)c2cccc3ccccc23)nc1C)c1sc(N(CCC(=O)O)c2cccc3ccccc23)nc1C [Compound 24] | > 200 | 8 |  |
| Cc1ccc(N(CCC(=O)O)c2nc(C)c(C(=O)C=Cc3ccccc3)s2)cc1 [Compound 25a] | > 200 | 83 |  |
| Cc1ccc(N(CCC(=O)O)c2nc(C)c(C(=O)C=Cc3ccc(Cl)cc3)s2)cc1 [Compound 25b] | > 200 | 66 |  |
| Cc1ccc(N(CCC(=O)O)c2nc(C)c(C(=O)C=Cc3ccc(F)cc3)s2)cc1 [Compound 25c] | > 200 | 58 |  |
| Cc1ccc(N(CCC(=O)O)c2nc(CNc3ccccc3)cs2)cc1 [Compound 26] | > 200 | 16 | Fold improvement of PL^pro affinity over compound 12 [2]: 2 fold |
| Cc1ccc(N(CCC(=O)O)c2nc(-c3ccc(Cl)cc3)c(/C=N\Nc3ccccc3)s2)cc1 [Compound 27a] | > 200 | 35 |  |
| Cc1ccc(N(CCC(=O)O)c2nc(-c3ccc(F)cc3)c(/C=N\Nc3ccccc3)s2)cc1 [Compound 27b] | > 200 | ≥ 50 |  |
| Cc1ccc(N(CCC(=O)O)c2nc(-c3ccc(C#N)cc3)c(/C=N\Nc3ccccc3)s2)cc1 [Compound 27c] | > 200 | 15 |  |
| Cc1ccc(N(CCC(=O)O)c2nc(-c3ccc(C#N)cc3)c(/C=N\NC(N)=S)s2)cc1 [Compound 28] | ≥ 50 | 8.8 |  |
| Cc1ccc(N(CCC(=O)O)c2nc(-c3ccc(C#N)cc3)c(C=O)s2)cc1 [Compound 29] | > 200 | > 200 |  |
| Nc1ccc(N(CCC(=O)O)c2nc(-c3ccc(Cl)cc3)cs2)cc1 [Compound 30a] | > 200 | ≥ 50 |  |
| Nc1ccc(N(CCC(=O)O)c2nc(-c3ccc(F)cc3)cs2)cc1 [Compound 30b] | > 200 | ≥ 50 |  |
| N#Cc1ccc(-c2csc(N(CCC(=O)O)c3ccc(N)cc3)n2)cc1 [Compound 30c] | > 200 | 32 |  |
| Nc1ccc(N(CCC(=O)O)c2nc(-c3ccc(C(F)(F)F)cc3)cs2)cc1 [Compound 30d] | > 200 | ≥ 50 |  |
| O=C(O)CCN(c1nc(C(=O)/C=C/c2ccccc2)c(C(=O)/C=C/c2ccccc2)s1)c1cccc2ccccc12 [Compound 31] | ≥ 50 | ≥ 50 |  |
| Nc1ccccc1SSc1ccccc1N [Compound 32] |  |  | Thermal effect (Tm) on wild-type PL^pro [3]: strongly destabilized the native PL^pro; also recorded: thermal destabilization effect (Tm decrease) induced by 32 is seen only for wild-type PL^pro; Covalent binding to M^pro by mass spectrometry ([4]; no reducing agents, 1 h incubation at room temperature): covalent binding of 32 with PL^pro and M^pro was confirmed; Mass shift of M^pro-compound adduct (major peak) ([4]; protein/ligand molar ratio 1:10): 245.73 Da and 245.7 Da; Covalent binding to PL^pro by mass spectrometry [5]: covalent binding of 32 with PL^pro and M^pro was confirmed; Mass shift of PL^pro-compound adduct (major peak) ([5]; protein/ligand molar ratio 1:5 for 32): 123.13 Da; Kd [1, 9]: 2.8 µM; Kd [2, 10]: 0.54 µM |
| O=C(O)CCNc1ccccc1SSc1ccccc1NCCC(=O)O [Compound 33] |  |  | Kd [1, 9]: > 200 µM; Kd [2, 10]: 2 µM |
| NNC(=O)CCNc1ccccc1SSc1ccccc1NCCC(=O)NN [Compound 34] |  |  | Covalent binding to PL^pro by mass spectrometry [5]: covalent binding of compound 34 to PLpro; Kd [1, 9]: 3.5 µM; Kd [2, 10]: 0.43 µM; Fold more potent for PL^pro than M^pro ([2]; ratio of Kd values): eight times |
| O=C(CCNc1ccccc1SSc1ccccc1NCCC(=O)N/N=C/c1cccs1)N/N=C/c1cccs1 [Compound 35] |  |  | Kd [1, 9]: > 200 µM; Kd [2, 10]: 2.5 µM |
| Cc1ccc(C)n1NC(=O)CCNc1ccccc1SSc1ccccc1NCCC(=O)Nn1c(C)ccc1C [Compound 36] |  |  | Kd [1, 9]: > 200 µM; Kd [2, 10]: 1.9 µM |
| O=C1CCN(c2ccccc2SSc2ccccc2N2CCC(=O)NC2=O)C(=O)N1 [Compound 37] |  |  | Kd [1, 9]: > 200 µM; Kd [2, 10]: 0.63 µM |
| O=C(CNc1ccccc1SSc1ccccc1NCC(=O)c1ccccc1)c1ccccc1 [Compound 38] |  |  | Kd [1, 9]: > 200 µM; Kd [2, 10]: 1.9 µM |
| Cn1cnc(Cn2c(=O)[nH]/c(=N\c3cc4cn(C)nc4cc3Cl)n(Cc3cc(F)c(F)cc3F)c2=O)n1 [S-217622] |  |  | Antiviral efficacy in patients [6]: rapid and favorable antiviral efficacy |
| CCN(CC)C(=S)SSC(=S)N(CC)CC [disulfiram] |  |  | Covalent interaction with cysteine residues of M^pro [7]: interact covalently with cysteine residues of M^pro |
